According to US9701729B2, “Peptide having 5 linked CTL epitopes” (TAIHO PHARMACEUTICAL CO., LTD., priority 2013, dated 2017):

Experiments:
[1] = tested on: CTL epitope peptide specific IgG antibody; test: Measurement of CTL-epitope specific IgG antibody titer in mouse serum (peptide-immobilized beads, Bio-Plex); type: in vivo, CBF1 mice (C57BL/6×Balb/c F1); details: emulsion with IFA, 100 μl weekly, three times; serum 1 week after final administration; compared with the IFA group
Procedure: Peptides were immobilized onto xMAP Multi-Analyte COOH Microspheres (Luminex Corporation; hereafter referred to as “beads”) in the manner described below. The beads were washed with MES buffer (0.1 M MES-NaOH; pH 7.0), the supernatant was removed by centrifugation. This washing process was repeated twice and the beads were then suspended in 75 μl of MES buffer. 100 μl of CTL epitope peptide solution (1 mg/ml), and 5 μl of 10 mg/ml EDC (1-ethyl-3-(3-dimethylaminopropyl)carbodiimide hydrochloride) solution was added into beads suspension then mixed well. Thereafter, the reaction was performed at 30° C. in the dark overnight. After the removal of supernatant by centrifugation on the following day, 125 μl of 1 M Tris-HCl was added, and incubation was carried out at 30° C. in the dark for 30 minutes. After the supernatant was removed again, the beads were washed twice with wash buffer (PBS(-), 0.05% Tween 20) and were suspended in Immunoblock (DS Pharma Biomedical Co., Ltd.). […]
The CTL epitope peptide-immobilized beads diluted with Immunoblock were dispensed into wells of a 96-well filter plate. […] After the three times of plate washing with a wash buffer, 100 μl of wash buffer was added into each well to suspend beads, and the mean fluorescence intensity of PE which specifically bound to relevant beads was measured using the Bio-Plex Suspension Array System (BIO-RAD). […]

[2] = tested on: CTL epitope peptide specific CTL; test: Induction of epitope peptide specific CTLs in mouse model, detection by IFN-γ ELISPOT; type: in vivo, mice (HLA-A2.1 transgenic and HLA-A24 transgenic mice); details: emulsion with IFA, 100 μl weekly at base of tail, twice; inguinal lymph node cells 1 week after final administration; positive = spots significantly above negative control peptide (p<0.05)
Procedure: The peptides having 5 linked epitopes were dissolved in Otsuka distilled water (Otsuka Pharmaceutical Factory Inc.) at 2 mg/ml or 4 mg/ml, and the resulting solution was filled into the B Braun Injekt syringe. After the equivalent amount of Incomplete Freund's adjuvant (IFA) was filled into another syringe, these syringes were connected to each other using a GP syringe connector, and a solution of the peptides having 5 linked epitopes was thoroughly mixed with IFA to prepare an emulsion. The emulsion was weekly administered in amounts of 100 μl each in the vicinity of base of tail of mice (HLA-A2.1 transgenic and HLA-A24 transgenic mice (Taconic)), and administrations were carried out twice in total. Inguinal lymph nodes were corrected from mice 1 week after the final administration. […] The number of IFN-γ-producing cell spots was quantified using an ELISPOT analyzer (Immunospot S6, Cellular Technology Ltd.). […]

PEP2-RR-PEP3-RR-PEP4-RR-PEP5-RR-PEP7 (ASLDSDPWVRRLLQAEAPRLRRDYSARWNEIRRVYDYNCHVDLRRQIRPIFSNR) [TPV17]
induction of CTL epitope specific IgG antibody production [1]: multiple CTL epitope specific IgG antibodies production was not induced

PEP7-RR-PEP2-RR-PEP5-RR-PEP3-RR-PEP4 (QIRPIFSNRRRASLDSDPWVRRVYDYNCHVDLRRLLQAEAPRLRRDYSARWNEI) [TPV18]
number of types of CTL epitope peptide specific CTLs induced [2]: no more than two CTLs induced
